Experimental data as given in ChEMBL document CHEMBL4393738, “Design of hybrid molecules as antimycobacterial compounds: Synthesis of isoniazid-naphthoquinone derivatives and their activity against susceptible and resistant strains of Mycobacterium tuberculosis” (Bioorg Med Chem, 2019).
Values after ≈ are worked out from the molar mass of the structure shown.

Assays:
Assay type in all cases: functional
[1] = test system: Mycobacterium tuberculosis; test: Antimycobacterial activity against isoniazid resistant Mycobacterium tuberculosis H37Rv ATCC 27294 measured after 7 days by resazurin microtiter assay; conditions: H37Rv ATCC 27294, 168 h
[2] = test system: Mycobacterium tuberculosis; test: Antimycobacterial activity against isoniazid resistant Mycobacterium tuberculosis ATCC 35822 after 7 days by resazurin microtiter assay; conditions: ATCC 35822, 168 h
[3] = test system: Mycobacterium tuberculosis; test: Antimycobacterial activity against isoniazid resistant Mycobacterium tuberculosis measured after 7 days by resazurin microtiter assay; conditions: 168 h

SMILES	MIC [1]	MIC [2]	MIC [3]
CC1(C)OC2=C(CC1Br)C(=O)C(=O)c1ccccc12 (stereo not drawn)	6.25 µg/mL (≈ 19.5 µM)	6.25 µg/mL (≈ 19.5 µM)	3.12 µg/mL (≈ 9.71 µM)
CC1(C)OC2=C(C(=O)C(=O)c3ccccc32)C1Nc1ccccc1 (stereo not drawn)	3.12 µg/mL (≈ 9.77 µM)	3.12 µg/mL (≈ 9.77 µM)	6.25 µg/mL (≈ 19.6 µM)
O=C1C(=O)c2ccccc2C2=C1CC(Cn1cc(-c3ccccc3)nn1)O2 (stereo not drawn)	12.5 µg/mL (≈ 35 µM)	25 µg/mL (≈ 70 µM)	25 µg/mL (≈ 70 µM)
CC1CC2=C(O1)c1ccccc1/C(=N/NC(=O)c1ccncc1)C2=O (stereo not drawn)	12.5 µg/mL (≈ 37.5 µM)	12.5 µg/mL (≈ 37.5 µM)	25 µg/mL (≈ 75 µM)
CC1(C)OC2=C(CC1I)C(=O)C(=O)c1ccccc12 (stereo not drawn)	3.12 µg/mL (≈ 8.47 µM)	3.12 µg/mL (≈ 8.47 µM)	6.25 µg/mL (≈ 17 µM)
CC1(C)OC2=C(C(=O)/C(=N\NC(=O)c3ccncc3)c3ccccc32)[C@H](n2cc(-c3ccccc3)nn2)[C@H]1Br	200 µg/mL (≈ 343 µM)	200 µg/mL (≈ 343 µM)	> 200 µg/mL
CC1(C)CC2=C(O1)c1ccccc1/C(=N/NC(=O)c1ccncc1)C2=O	0.78 µg/mL (≈ 2.25 µM)	50 µg/mL (≈ 144 µM)	6.25 µg/mL (≈ 18 µM)
CC1(C)OC2=C(CC1Br)C(=O)/C(=N\NC(=O)c1ccncc1)c1ccccc12 (stereo not drawn)	12.5 µg/mL (≈ 28.4 µM)	12.5 µg/mL (≈ 28.4 µM)	12.5 µg/mL (≈ 28.4 µM)
CC1(C)OC2=C(C(=O)/C(=N\NC(=O)c3ccncc3)c3ccccc32)C1n1cc(-c2ccccc2)nn1 (stereo not drawn)	12.5 µg/mL (≈ 25.5 µM)	12.5 µg/mL (≈ 25.5 µM)	12.5 µg/mL (≈ 25.5 µM)
CC1(C)OC2=C(C(=O)C(=O)c3ccccc32)C1n1cc(-c2ccccc2)nn1 (stereo not drawn)	6.25 µg/mL (≈ 16.8 µM)	25 µg/mL (≈ 67.3 µM)	25 µg/mL (≈ 67.3 µM)
O=C1C2=C(OC(Cn3cc(-c4ccccc4)nn3)C2)c2ccccc2/C1=N/NC(=O)c1ccncc1 (stereo not drawn)	12.5 µg/mL (≈ 26.2 µM)	50 µg/mL (≈ 105 µM)	50 µg/mL (≈ 105 µM)
CC1(C)OC2=C(C(=O)/C(=N\NC(=O)c3ccncc3)c3ccccc32)C1Nc1ccccc1 (stereo not drawn)	25 µg/mL (≈ 57 µM)	100 µg/mL (≈ 228 µM)	25 µg/mL (≈ 57 µM)
CC1(C)OC2=C(C(=O)/C(=N\NC(=O)c3ccncc3)c3ccccc32)C1O (stereo not drawn)	6.25 µg/mL (≈ 17.2 µM)	200 µg/mL (≈ 550 µM)	100 µg/mL (≈ 275 µM)
CC1(C)CC2=C(O1)/C(=N\NC(=O)c1ccncc1)c1ccccc1C2=O	25 µg/mL (≈ 72 µM)	100 µg/mL (≈ 288 µM)	200 µg/mL (≈ 576 µM)
CC1(C)CCC2=C(O1)c1ccccc1/C(=N/NC(=O)c1ccncc1)C2=O	0.78 µg/mL (≈ 2.16 µM)	50 µg/mL (≈ 138 µM)	6.25 µg/mL (≈ 17.3 µM)
CC1(C)OC2=C(CC1I)C(=O)/C(=N\NC(=O)c1ccncc1)c1ccccc12 (stereo not drawn)	100 µg/mL (≈ 205 µM)	100 µg/mL (≈ 205 µM)	100 µg/mL (≈ 205 µM)
CC1(C)CCC2=C(O1)/C(=N\NC(=O)c1ccncc1)c1ccccc1C2=O	> 200 µg/mL	> 200 µg/mL	> 200 µg/mL
CC1(C)OC2=C(C(=O)C(=O)c3ccccc32)C1O (stereo not drawn)	12.5 µg/mL (≈ 51.2 µM)	25 µg/mL (≈ 102 µM)	25 µg/mL (≈ 102 µM)
CC1(C)CC2=C(O1)C(=O)c1ccccc1C2=O	12.5 µg/mL (≈ 54.8 µM)	25 µg/mL (≈ 110 µM)	25 µg/mL (≈ 110 µM)
CC1(C)OC2=C(C(=O)C(=O)c3ccccc32)[C@H](n2cc(-c3ccccc3)nn2)[C@H]1Br (racemic)	1.56 µg/mL (≈ 3.36 µM)	6.25 µg/mL (≈ 13.5 µM)	12.5 µg/mL (≈ 26.9 µM)
CC1(C)CCC2=C(O1)C(=O)c1ccccc1C2=O [ALPHA-LAPACHONE]	103 µg/mL (≈ 426 µM)		
NNC(=O)c1ccncc1 [ISONIAZID]	0.03 µg/mL (≈ 0.219 µM)	2 µg/mL (≈ 14.6 µM)	0.25 µg/mL (≈ 1.82 µM)
CC1(C)CCC2=C(O1)c1ccccc1C(=O)C2=O [LAPACHONE]	1.56 to 6.25 µg/mL (≈ 6.44 to 25.8 µM)	3.12 µg/mL (≈ 12.9 µM)	6.25 µg/mL (≈ 25.8 µM)
CC1(C)CC2=C(O1)c1ccccc1C(=O)C2=O [NOR-BETA-LAPACHONE]	3.12 µg/mL (≈ 13.7 µM)	12.5 µg/mL (≈ 54.8 µM)	6.25 µg/mL (≈ 27.4 µM)
CO[C@H]1/C=C/O[C@@]2(C)Oc3c(C)c(O)c4c(O)c(c(/C=N/N5CCN(C)CC5)c(O)c4c3C2=O)NC(=O)/C(C)=C\C=C\[C@H](C)[C@H](O)[C@@H](C)[C@@H](O)[C@@H](C)[C@H](OC(C)=O)[C@@H]1C [RIFAMPIN]	≤ 0.03 µg/mL	≤ 0.03 µg/mL	> 8 µg/mL
